Experimental data reported in PMC9144902, “Metal(II) Complexes of the Fluoroquinolone Fleroxacin: Synthesis, Characterization and Biological Profile” (Pharmaceutics, 2022).

What was measured:
[1] = system: Bacillus subtilis ATCC 6633; experiment: Antimicrobial activity, MIC determination; type: cell-based; conditions: B. subtilis; 24-h incubation, 37°C
Procedure: (§1) The in vitro antimicrobial activity of the compounds was evaluated by determining the minimum inhibitory concentration (MIC) against the Gram-positive microorganisms Staphylococcus aureus ATCC 6538 (S. aureus) and Bacillus subtilis ATCC 6633 (B. subtilis) and the Gram-negative microorganism Xanthomonas campestris ATCC 1395 (X. campestris). The affinity of the compounds for bovine serum albumin (BSA) and human serum albumin (HSA) was studied by fluorescence emission spectroscopy, and the corresponding binding constants were determined. Furthermore, the interaction of the compounds with calf-thymus DNA (CT DNA) was investigated to determine the possible mode of interaction by the following methods: (i) UV–vis spectroscopy (where the DNA-binding constants of the complexes (Kb) were also determined), (ii) DNA-viscosity measurements, (iii) cyclic voltammetry and (iv) competitive DNA-binding studies with the classic intercalator ethidium bromide (EB) performed by fluorescence emission spectroscopy.
(§2) Three bacterial strains, one Gram(−) (X. campestris) and two Gram(+) (S. aureus and B. subtilis), were used in order to test the antimicrobial activity of the compounds.
(§3) The antimicrobial activity of the compounds was evaluated b y determining their respective MIC values towards one Gram–( –) (Xanthomonas campestris ATCC 1395 (X. campestris)) and two Gram–(+) (Staphylococcus aureus ATCC 6538 (S. aureus) and Bacillus subtilis ATCC 6633 (B. subtilis)) bacterial species. Cultures of these microbial strains were grown on a rich selective agar medium and stored at 4°C. The selective media used were Nutrient Agar or Broth for B. subtilis and S. aureus, and Yeast Mold Agar or Broth for X. campestris . Cells picked from the surface of the stored cultures were used to initiate liquid pre–cultures of the same selective medium at an initial turbidity of roughl y 1 McFarland unit. Pre–cultures were incubated for 24 h in a rotar y sh aking incubator and subsequently the y were used to inoculate the test cultures used for the determination of MIC at an initial turbidity of 0.5 McFarland units. The test cultures consisted of Mueller–Hinton broth (Deben Diagnostics Ltd) containing different concentrations of the compounds. Different concentrations were achieved as follows: the compounds were freshly dissolved in DMSO to a concentration of 1 mg/mL and they were diluted with DMSO, using the method of progressive double dilution. Therefore, working solutions with decreasing concentrations of the compounds under investigation were achieved. The working solutions were subsequently diluted to the final desired concentration b y addition to the growth medium at a proportion of 2:98. MIC values were determined as the lowest concentrations of the tested compounds that inhibited visible growth of each respective organism after a 24–h incubation [ S1]. Bacterial growth was determined b y measuring the turbidit y of appropriatel y diluted cultures at 600 nm with reference to equall y diluted sterile growth medium and the inhibition achieved was calculated b y comparing the turbidit y of each culture to the average of the turbidit y of three non–inhibited cultures. All test cultures were grown in triplicates and for the determination of MIC, growth had to be inhibited in at least two cultures of the triplicate. In cubation temperatur e at all stages was 37°C ex cept for X. campestris t h at was cultivated at 28°C [S2]. […]
(§4) The fluorescence spectra of the compounds were recorded under the same experimental conditions and presented a low–intensity emission band in the region 405–410 nm .

[2] = system: Staphylococcus aureus ATCC 6538; experiment: Antimicrobial activity, MIC determination; type: cell-based; conditions: S. aureus; 24-h incubation, 37°C
Procedure: as §1, §2, §3, §4

[3] = system: Xanthomonas campestris ATCC 1395; experiment: Antimicrobial activity, MIC determination; type: cell-based; conditions: X. campestris; 24-h incubation, 28°C
Procedure: as §1, §2, §3, §4

EB–DNA adduct (CT DNA) = experiment: Competitive study with EB (EB–DNA fluorescence quenching); type: binding, calf
Procedure: Ethidium bromide is a typical marker of intercalation because it can intercalate between adjacent DNA bases with its planar phenanthridine ring.
The fluorescence emission spectra of the EB–DNA adduct ([EB] = 20 μM, [DNA] = 26 μM) in the absence and presence of the compounds were recorded at increasing amounts of the respective compounds. […] As a conclusion, an intercalative interaction of the complexes with CT DNA can be proposed.
The values of the Stern–Volmer constants (Ksv) for the compounds were calculated using the linear Stern–Volmer equation (Equation (S2)) and were of the order of 10^5 M^−1 (Table 8), indicating tight binding of the complexes with DNA [61]. The Ksv values for the complexes are in the range found for a number of metal(II)–quinolone complexes, and complex 12 presents the highest Ksv value (Ksv = 7.25(±0.30) × 10^5 M^−1) among the compounds studied. In addition, the EB–DNA quenching constants (kq) for the compounds were calculated with Equation (S3), assuming τo = 23 ns as the fluorescence lifetime. The values of kq (Table 8) are much higher than the value of 10^10 M^−1s^−1, indicating a static mechanism of EB–DNA fluorescence quenching induced by the compounds, which can result from the formation of a new adduct apparently consisting of each complex and DNA [61].
In order to determine and confirm the DNA–binding mode of the compounds, a competitive study with EB as an intercalating marker is performed b y fluorescence emission spectroscopy.
Therefo re, the E B–displacing abilit y of the compounds from its EB –DN A conjugate was ex amined.
The DNA–EB adduct was prepared b y addition of 20 μM EB and 26 μM CT DNA in buffer solution (150 mM NaCl and 15 mM trisodium citrate at pH 7.0). The potential intercalation of the compounds between the DNA–bases was studied by the addition of a certain amount of the compound solution into the EB–DNA adduct solution. The influence of the compounds on the EB – DNA solution was monitored through the changes of the fluorescence emission spectra at excitation […]
wavelen gth (λex ) at 540 nm [S3]. […]
room temperature in solution or in the presence of DNA, under the same experimental conditions (λex = 540 nm). Bearing t hat in mind, the observed quenching of the EB–DNA solution is evidentl y associated to the displacement of EB from its EB–DNA adduct.
The quenching effici ency (KSV) for each compound was assessed according to the Stern – Volmer equation: Io =1+ k τ [Q] = 1+ K [Q], (eq. S2) [S3] where I0 and I = the fluorescence […]
emission intensities of EB–DNA in the absence and presence of the quencher, respectivel y, [Q] = the concentration of the quencher (i.e. compounds). KSV is obtained from t he Stern–Volmer plots b y the slope of the diagram I0/ I versus [Q]. Taking τ0 = 23 ns as the fluorescence lifetime of the EB– DNA s ystem [S5], the EB –DNA quenching constants (k q) of the compounds can be determined accordin g to eq.S3: K SV = kqτo . […]
[S2] Irgi, E.P.; Geromichalos, G.D.; Balala, S.; Kljun, J.; Kalogiannis, S.; Papadopoulos, A.; Turel, I.; Psomas, G. Cobalt(II) complexes with quinolone antimicrobial drug oxolinic acid: […]
[ S 5] Heller, D.P.; Greenstock, C.L. Fluorescence lifetime analysis of DNA intercalated ethidium bromide and quenching by free d ye. Biophys. Chem . 1994, 50, 305–312.

[4] = biological target: T1, human serum albumin (HSA) (Homo sapiens, UniProt P02768); experiment: Albumin binding by tryptophan fluorescence emission quenching
T1 construct: purchased
T1 sequence (P02768 25-609): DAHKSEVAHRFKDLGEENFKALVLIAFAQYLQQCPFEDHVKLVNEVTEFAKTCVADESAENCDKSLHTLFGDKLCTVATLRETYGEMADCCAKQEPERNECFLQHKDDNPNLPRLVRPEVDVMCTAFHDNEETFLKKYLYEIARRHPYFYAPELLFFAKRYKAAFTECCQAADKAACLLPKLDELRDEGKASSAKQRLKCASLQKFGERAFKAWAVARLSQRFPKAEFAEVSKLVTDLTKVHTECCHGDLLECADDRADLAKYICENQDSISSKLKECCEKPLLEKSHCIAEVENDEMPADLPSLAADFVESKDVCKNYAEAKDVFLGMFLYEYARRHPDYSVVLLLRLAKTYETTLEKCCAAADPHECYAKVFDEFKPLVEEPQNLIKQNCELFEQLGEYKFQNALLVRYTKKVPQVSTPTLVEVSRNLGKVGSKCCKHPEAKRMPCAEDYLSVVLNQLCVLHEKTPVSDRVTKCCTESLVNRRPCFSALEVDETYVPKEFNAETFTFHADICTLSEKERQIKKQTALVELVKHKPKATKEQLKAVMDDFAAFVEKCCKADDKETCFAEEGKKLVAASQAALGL
Procedure: (§5) Serum albumins (Sas) are the most abundant serum proteins and play a role in the circulatory system, primarily in the transport of drugs and other bioactive small molecules through the bloodstream.
(§6) The SA-quenching constants (kq) for the compounds (Table 5) were calculated with the Stern–Volmer quenching equation (Equations (S2) and (S3)).
(§7) Albumin-binding constants (K) were calculated using the Scatchard equation (Equation (S4)). […]
(§8) S2. Interaction with serum albumins
(§9) The albumin–binding study for the compounds was carried out b y fluorescence emission

[5] = biological target: T2, bovine serum albumin (BSA) (Bos taurus, UniProt P02769); experiment: as above
T2 construct: purchased
T2 sequence (P02769 25-607): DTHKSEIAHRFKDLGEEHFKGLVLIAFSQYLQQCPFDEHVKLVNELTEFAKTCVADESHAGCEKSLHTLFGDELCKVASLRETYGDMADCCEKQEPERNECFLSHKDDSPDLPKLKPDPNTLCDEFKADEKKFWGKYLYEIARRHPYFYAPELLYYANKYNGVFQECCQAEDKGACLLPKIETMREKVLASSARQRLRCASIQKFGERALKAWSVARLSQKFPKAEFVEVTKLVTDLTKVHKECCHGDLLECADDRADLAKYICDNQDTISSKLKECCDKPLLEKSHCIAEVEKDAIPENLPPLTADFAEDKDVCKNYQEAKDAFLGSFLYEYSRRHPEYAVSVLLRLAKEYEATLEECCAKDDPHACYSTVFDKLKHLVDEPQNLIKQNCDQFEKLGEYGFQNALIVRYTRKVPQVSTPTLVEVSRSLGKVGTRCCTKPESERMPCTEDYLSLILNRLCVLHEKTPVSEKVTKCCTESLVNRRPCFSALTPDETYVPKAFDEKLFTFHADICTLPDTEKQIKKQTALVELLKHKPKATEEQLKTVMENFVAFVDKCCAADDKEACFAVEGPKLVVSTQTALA
Procedure: as §5, §6, §7, §8, §9

In the case of CN1CCN(c2c(F)cc3c(=O)c(C(=O)[O-])cn(CCF)c3c2F)CC1.CN1CCN(c2c(F)cc3c(=O)c(C(=O)[O-])cn(CCF)c3c2F)CC1.[Zn+2].c1cnc2c(c1)ccc1cccnc12 [complex 14, [Zn(flrx)2(phen)]], the MIC [1] is reported as 8 µg/mL, the “MIC (values in parentheses)” value [1] is reported as 8.1 µM and the MIC [2] is reported as 8 µg/mL. The “MIC (values in parentheses)” value [2] was 8.1 µM, the MIC [3] was 16 µg/mL and the “MIC (values in parentheses)” value [3] was 16.3 µM. The “Ksv, Stern–Volmer constant” value (EB–DNA adduct (CT DNA); EB–DNA adduct) was 3.03(±0.05) × 10^5 M^–1, the “ΔI/Io, percentage of EB–DNA fluorescence quenching” value (EB–DNA adduct (CT DNA); [EB] = 20 μM, [DNA] = 26 μM, λexc 540 nm, λem 592 nm) was 77.9% and the “EB–DNA relative fluorescence emission intensity, % of the initial (I/Io)” value (EB–DNA adduct (CT DNA); λemission = 592 nm, final value (up to), Figure S14) was 22.1%. For the same compound, the “kq, EB–DNA quenching constant” value (EB–DNA adduct (CT DNA); τo = 23 ns) was 1.32(±0.02) × 10^13 M^−1s^−1, the “K(HSA), HSA-binding constant” value ([4]; HSA 3 μM, buffer pH 7.0, Scatchard equation) was 6.16(±0.43) × 10^4 M^−1 and the “kq(HSA), HSA-quenching constant” value ([4]; HSA 3 μM, buffer pH 7.0, λexc 295 nm, Stern–Volmer, τ0 = 10^–8 s) was 1.10(±0.04) × 10^13 M^−1s^−1. For the same compound, the “HSA fluorescence, % of the initial fluorescence intensity (I/Io)” value ([4]; λem,max = 351 nm, final value of titration (Figure S10)) was 33.5%, the “K(BSA), BSA-binding constant” value ([5]; BSA 3 μM, buffer pH 7.0, Scatchard equation) was 5.56(±0.25) × 10^4 M^−1 and the “kq(BSA), BSA-quenching constant” value ([5]; BSA 3 μM, buffer pH 7.0, λexc 295 nm, Stern–Volmer, τ0 = 10^–8 s) was 1.61(±0.07) × 10^13 M^−1s^−1. For the same compound, the “BSA fluorescence, % of the initial fluorescence intensity (I/Io)” value ([5]; λem,max = 342 nm, final value of titration (Figure S11)) was 25.8%.
